Experimental data from patent US20070254951A1, “HIGH CONCENTRATION DINOTEFURAN FORMULATIONS” (priority 2006, published 2007).
Where two headings read alike, the source gives them in different places.

Columns and labels:
[1] = Text: It is also desirable that the resulting formulation be stable. […] This is important because these conditions can be met in commerce. The crystallization would reduce the amount of insecticide in solution and reduce the efficacy of the solution applied to the animal.
[2] = formulation of Example 9
Text: The formulation of Example 9 was stored under variable temperatures up to 2 years to determine the stability of dinotefuran in solution.

## CNC(=N[N+](=O)[O-])NCC1CCOC1 (stereo not drawn) [Dinotefuran, 1-{(tetrahydro-3-furanyl)methyl}-2-nitro-3-methylguanidine]
[1]; methoprene at about 0.8% and below, compared to a similar formulation without methoprene
  increase in concentration by including methoprene: ~50%
[1]; phenyl methanol formulation, no crystal formation at 0° F. during a 1 month period
  increase in concentration achievable by including pyriproxyfen at low levels: ~50%
[1]; typically, 0° F.
  dinotefuran concentration that will crystallize at 0° F. within a few days: over 8%
[2]; 40° F., 1 Mo
  Dinotefuran concentration in solution (average): 15.03 percent by weight
[2]; 110° F., 3 Mo
  Dinotefuran concentration in solution (average): 15.33 percent by weight
[2]; 130° F., 1 Mo
  Dinotefuran concentration in solution (average): 15.22 percent by weight
[2]; F/T, 1 Mo
  Dinotefuran concentration in solution (average): 15.05 percent by weight
[2]; INITIAL
  Dinotefuran concentration in solution (average): 15.43 percent by weight
[2]; RT (25° C.), 3 Mo
  Dinotefuran concentration in solution (average): 15.17 percent by weight
[2]; RT, 1 Yr
  Dinotefuran concentration in solution (average): 15.24 percent by weight
[2]; RT, 2 Yrs
  Dinotefuran concentration in solution (average): 15.735 percent by weight
[2]; RT, 6 Mo
  Dinotefuran concentration in solution (average): 15.06 percent by weight
